According to patent EP0220873B1, “Fused bicyclic imides with psychotropic activity” (priority 1985, dated 1987):
Where a name gives a salt, the structure may show the parent alone. Read-outs that look alike come from different tables or passages of the source. Marks after values point to notes of the source that are not given here.

Columns and labels:
avoidance responding [1] = experiment: conditioned avoidance (discrete trial) test; assay type: in vivo, Male CD rats; conditions: Rattus norvegicus, po; footnote 1 = AB50 value; read-out: Active at mg/kg (AB50 value)
Method: The antipsychotic activity of the compounds of the invention is assessed via the conditioned avoidance (discrete trial) test. This test has excellent clinical correlation for antipsychotic activity.
The test is carried out as follows: Male CD rats (Charles River) maintained at approximately 400-450 gm body weight are used. Rats trained previously are placed in plexiglass experimental chambers equipped with a response lever, house light, and sonalert. A steel grid floor is wired for presentation of electric shock. Each trial consists of a fifteen-second warning tone (conditioned stimulus), continuing for an additional fifteen seconds accompanied by electric shock, (unconditioned stimulus). The rat can terminate a trial at any point by depression of the response lever. As response during the initial fifteen-second warning tone ends the trial before shock delivery and is considered avoidance response, while a response occurring during shock delivery is an escape response. Trials are presented on a variable interval schedule of two minutes. The session consists of sixty trials. Animals are run two to three times weekly with control sessions always preceding a drug run, and with at least one day intervening, compounds are administered i.p. or p.o. at appropriate pre-treatment times to a minimum of five to six rats at each dose level over a range of doses.
(§1) Response counts are summed over all subjects at a given dose. […] This number is expressed as a percentage of the total trials. Control performance is arbitrarily assigned a value of 100% for avoidance and the dose calculated to produce a 50% block in avoidance responding (AB₅₀) is obtained from a dose-effect regression line fitted by the method of least squares. Potential antipsychotic compounds suppress avoidance responding and increase escape responding.

[2] = target: T1, limbic D-2 dopamine receptor (Rattus norvegicus, UniProt P61169); experiment: biochemical; assay type: binding, rats; conditions: for inhibition at 1 µM: read-out: Limbic D-2 Binding, % inhibition at 1 µM; for Ki: Table 1, 0.3 nM 3H-spiroperidol, rat limbic brain tissue, read-out: Limbic D-2 Binding (KinM)
T1 construct: Limbic brain tissue (nucleus accumbens, septal area, olfactory tubercle) is dissected; from tissue; host or cells: rat limbic brain tissue (nucleus accumbens, septal area, olfactory tubercle) homogenate

[3] = target: T2, 5-HT-1A serotonin receptor (Rattus norvegicus, UniProt P19327); experiment: ex vivo inhibition of 5-HT-1A serotonin receptor binding (3H-8-OH-DPAT, hippocampal membranes); set-up: species or system rats
T2 construct: Hippocampal tissue is dissected and homogenized on ice; from tissue; host or cells: rat hippocampal membrane homogenate
T2 sequence (P19327 1-422): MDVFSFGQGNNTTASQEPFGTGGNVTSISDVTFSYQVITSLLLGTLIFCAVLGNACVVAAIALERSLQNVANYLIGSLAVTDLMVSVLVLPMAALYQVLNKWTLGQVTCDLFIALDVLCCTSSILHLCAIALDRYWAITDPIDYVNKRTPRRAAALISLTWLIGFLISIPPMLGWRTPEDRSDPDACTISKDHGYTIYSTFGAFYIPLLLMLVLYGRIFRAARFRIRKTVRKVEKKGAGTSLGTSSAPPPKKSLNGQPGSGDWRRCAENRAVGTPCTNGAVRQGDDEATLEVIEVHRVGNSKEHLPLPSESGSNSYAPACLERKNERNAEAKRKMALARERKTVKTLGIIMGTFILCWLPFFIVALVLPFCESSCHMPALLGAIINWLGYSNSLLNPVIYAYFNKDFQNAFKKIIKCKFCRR
Method: The assay is carried out as follows: Several groups of rats (4 - 6 rats/group) are injected with test compound or the appropriate vehicle. Thirty minutes later, unless otherwise noted, rats are decapitated and their brains removed. Various brain regions are dissected and rapidly frozen and maintained at -70°C until used.
Hippocampal tissue is dissected and homogenized on ice in 40 vols of buffer (50 mM Tris HCl, pH = 7.7) using a Polytron homogenizer at setting 5 for 3 x 15 sec bursts. The homogenate is then centrifuged at 20,000 rpm (RC5-B; 50,000 g) and the supernatant discarded. The pellet is resuspended in 40 vols of the same buffer and incubated at 37°C for 10 minutes to aid in the removal of endogenous serotonin. The homogenate is then centrifuged (as above) and the supernatant discarded. The pellet is then resuspended in 100 vols of buffer B (50 mM Tris HCl, pH = 7.7 containing 0.1% ascorbate, 10 µM pargyline and 4 mM CaCl₂) and sonicated. An aliquot is taken for protein determination by the Lowry method and the remainder stored frozen at -70°C until used.
The homogenate (50 µl; 0.4-0.6 mg protein/sample) is incubated with 100 µl (1.5-1.8 nM) ³H-8-hydroxy-2-(di-n-propylamino)tetraline in a final volume of 2 ml of buffer for 10 minutes at 37°C. At the end of the incubation, 3 ml of cold buffer A are added to each tube, and the contents rapidly filtered through Whatman GF/B glass filters. The filters are then rapidly washed 2 times with 3 ml of the same buffer, placed in scintillation vials, and shaken for 15 minutes with 10 ml of Hydrofluor (National Diagnostics)scintillation cocktail. The vials are then counted in a Packard 460 CD scintillation counter.
Specific binding is calculated for each of the treatment protocols and is defined as total binding less binding in the presence of excess unlabeled serotonin (1 µM). Specific binding obtained in vehicle-treated rats is compared to that obtained in animals receiving a single or various doses of test compound and expressed as percent of control. […] Linear regression analysis then yields a straight line with 95% confidence limits from which an IC₅₀ can be inversely predicted.

avoidance responding [4] = experiment: conditioned avoidance (shelf-jump response) test; assay type: in vivo, Male CD rats; conditions: i.p., active dose
Method: Another test designed to determine the potential antipsychotic activity of the compounds of the invention is the conditioned avoidance (shelf-jump response) test.
This test is carried out as follows: Male CD rats (Charles River) maintained at approximately 400-450 gm body weight are used. Previously trained rats are placed in plexiglass experimental chambers divided into two sections; a main chamber (10 1/2" x 6 3/4" x 11 7/8" high) and an elevated chamber or shelf (5 7/8" x 6 7/8" x 5 3/4"). A moveable wall, controlled by a motor, determines whether the rat has access to the shelf at any time during the experiment. The experimental chamber also contains a house light and sonalert. A steel grid floor in the main chamber is wired for presentation of electric shock. Each trial consists of a fifteen-second warning tone (conditioned stimulus), continuing for an additional fifteen seconds accompanied by electric shock, (unconditioned stimulus). A response (jumping onto the exposed shelf of the upper chamber) occurring during the initial fifteen-second warning tone is considered an avoidance response, while a response occurring during shock delivery is considered an escape response. Trials are presented on a fixed interval schedule of one minute. The session consists of thirty-six trials. Animals are run twice weekly with control sessions always preceding a drug run, and with at least one day intervening. Compounds are administered i.p. or p.o. at appropriate pre-treatment times to a minimum of five rats at each dose level over a range of doses.
The following experimental parameters are recorded by computer: (1) the number of avoidance responses, (2) the number of escape responses, and (3) the number of trials in which no response occurred.
as §1

[5] = Table 4, 3H-8-OH-DPAT, rat hippocampal tissue, read-out: Inhibition Constant (Ki nm)

T1 sequence (P61169 whole entry): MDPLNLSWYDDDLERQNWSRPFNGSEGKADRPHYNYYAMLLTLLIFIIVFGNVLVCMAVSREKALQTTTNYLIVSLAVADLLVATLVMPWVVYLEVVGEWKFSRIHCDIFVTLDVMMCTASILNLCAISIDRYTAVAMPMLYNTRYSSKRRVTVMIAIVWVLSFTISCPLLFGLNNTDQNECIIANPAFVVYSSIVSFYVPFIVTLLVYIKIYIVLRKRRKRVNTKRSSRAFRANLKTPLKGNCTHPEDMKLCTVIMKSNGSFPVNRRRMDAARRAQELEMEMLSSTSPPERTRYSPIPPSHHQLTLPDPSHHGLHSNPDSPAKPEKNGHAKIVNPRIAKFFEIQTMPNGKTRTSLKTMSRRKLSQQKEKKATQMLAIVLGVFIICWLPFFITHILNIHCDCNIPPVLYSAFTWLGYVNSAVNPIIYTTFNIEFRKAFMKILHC

| inhibition at 1 µM [2] | inhibition at 1 µM [3] | Ki [2] | Ki [3, 5] | Structure (SMILES) | ED50 (avoidance responding [1]) | Active at mg/kg (avoidance responding [4]) | Ki [3] |
| --- | --- | --- | --- | --- | --- | --- | --- |
| 38% | 68% | – | – | O=C1C2C3C=CC(C4CC34)C2C(=O)N1CCCCN1CCN(c2cnccn2)CC1 (centres unmarked) [Example 24, 4,4a,5,5a,6,6a-Hexahydro-2-[4-[4-(2-pyrazinyl)-1-piperazinyl]butyl]-4,6-ethenocycleprop[f]isoindole-1,3-(2H,3aH)-dione, dihydrochloride, hydrate] | 49.6 mg/kg | 40 (i.p.) mg/kg | – |
| 13% | 46% | – | – | O=C1C2C3C=CC(C4C=CC43)C2C(=O)N1CCCCN1CCN(c2cnccn2)CC1 (centres unmarked) [Example 23, 3a,4,4a,6a,7,7a-Hexahydro-2-[4-[4-(2-pyrazinyl)-1-piperazinyl]butyl]-4,7-etheno-1H-cyclobut[f]isoindole-1,3-(2H)-dione, fumarate(1:1)] | – | 40 (i.p.) mg/kg | – |
| – | – | 345 nM | 17 nM | O=C1C2C3C=CC(C4C=CC43)C2C(=O)N1CCCCN1CCN(c2ncccn2)CC1 (centres unmarked) [Example 3, 3a,4,4a,6a,7,7a-Hexahydro-2-[4-[4-(2-pyrimidinyl)-1-piperazinyl]butyl]-4,7-etheno-1H-cyclobut[f]isoindole-1,3(2H)-dione, dihydrochloride, sesquihydrate] | 13.4 mg/kg | 40 (i.p.) mg/kg | – |
| – | – | 140 nM | 13.9 nM | O=C1C2C3CCC(C4CC43)C2C(=O)N1CCCCN1CCN(c2ncccn2)CC1 (centres unmarked) [Example 7, 2-[4-[4-(2-Pyrimidinyl)-1-piperazinyl]butyl]octahydro-4,6-ethanocycloprop[f]isoindole-1,3-(2H, 3aH)-dione, dihydrochloride, dihydrate] | – | 40 (i.p.) mg/kg | – |
| 1% | 74% | – | – | O=C1C2C3C=CC(C3)C2C(=O)N1CCCCN1CCN(c2cncc(Cl)n2)CC1 (centres unmarked) [Example 13, 3a,4,7,7a,-Tetrahydro-2-[4-[4-(6-chloro-2-pyrazinyl)-1-piperazinyl]butyl]-4,7-methano-1H-isoindole-1,3(2H)-dione hydrochloride hydrate] | 39.7 mg/kg | 40 (i.p.) mg/kg | – |
| – | – | 690 nM | 162 nM | O=C1C2C3C=CC(C4CC34)C2C(=O)N1CCCCN1CCN(c2cncc(Cl)n2)CC1 (centres unmarked) [Example 1, 2-[4-[4-(6-Chloro-2-pyrazinyl)-1-piperazinyl]butyl]hexahydro-4,6-ethenocycloprop[f]isoindole-1,3(2H,3aH)-dione, dihydrochloride, sesquihydrate] | 40 mg/kg | 40 (i.p.)* mg/kg | – |
| 53% | – | – | 12 nM | O=C1C2C3C=CC(CCC3)C2C(=O)N1CCCCN1CCN(c2ncccn2)CC1 (centres unmarked) [Example 21, 4,5,6,7,8,8a-Hexahydro-2-[4-[4-(2-pyrimidinyl)-1-piperazinyl]butyl]-4,8-ethenocyclohepta[c]pyrrole-1,3(2H,3aH)-dione, dihydrochloride, hemihydrate] | – | 40 (i.p.) mg/kg | – |
| – | – | 345 nM | 122 nM | O=C1C2C3C=CC(CCCC3)C2C(=O)N1CCCCN1CCN(c2cncc(Cl)n2)CC1 (centres unmarked) [Example 8, 2-[4-[4-(6-Chloro-2-pyrazinyl)-1-piperazinyl]butyl]octahydro-4,9-etheno-1H-cycloocta[c]pyrrole-1,3(2H)-dione, dihydrochloride, sesquihydrate] | – | 40 (i.p.) mg/kg | – |
| 41% | – | – | 41 nM | O=C1C2C3C=CC(C4CCC34)C2C(=O)N1CCCCN1CCN(c2cnccn2)CC1 (centres unmarked) [Example 27, 3a,4,4a,5,6,6a,7,7a-Octahydro-2-[4-[4-(2-pyrazinyl)-1-piperazinyl]butyl]-4,7-etheno-1H-cyclobut[f]isoindole-1,3(2H)-dione, dihydrochloride, hemihydrate] | – | 40 (i.p.) mg/kg | – |

| Structure (SMILES) | inhibition at 1 µM [2] | inhibition at 1 µM [3] | Ki [2] | Ki [3, 5] | ED50 (avoidance responding [1]) | Active at mg/kg (avoidance responding [4]) | Ki [3] |
| --- | --- | --- | --- | --- | --- | --- | --- |
| O=C1C2C3C=CC(C4CCC34)C2C(=O)N1CCCCN1CCN(c2ncccn2)CC1 (centres unmarked) [Example 16, 2-[4-[4-(2-Pyrimidinyl)-1-piperazinyl]butyl]-octahydro-4,7-etheno-1H-cyclobut[f]isoindole-1,3-(2H)-dione, dihydrochloride, hydrate] | – | – | 85 nM | – | 47.4 mg/kg | 40 (i.p.) mg/kg | 1.1 nM |
